Laboratory results from patent publication US20110262552A1, “Compositions Comprising Plant Extracts and Use Thereof for Treating Inflammation” (priority 2008, published 2011).

Assays:
[1] = test system: carrageenan-induced paw edema; test: Carrageenin-induced acute inflammation (paw edema) in mice; format: in vivo, CD-1 mice; conditions: oral; for % inhibition (hind paw edema): 1 h before intra-plantar carrageenan, edema 4 h after, compositions 1-4 250 mg/kg total, Aspirin 150, Phenylbutazone 30, Celebrex 10, Naproxen 30 mg/kg; for anti-inflammatory activity in carrageenan-induced paw edema assay: doses as in Table V
Experimental: Male CD-1 (Crl.) derived mice weighing 22±1 g were obtained from BioLasco Taiwan (under Charles River Laboratories Technology Licensee). All animals were housed in a controlled temperature (22° C.-24° C.) and humidity (60%-80%) environment with 12 hours light/dark cycles for at least one week prior to experimental use. The animals had free access to standard lab chow for mice (MF-18 (Oriental Yeast Co., Ltd., Japan) and Reverse Osmosis water was granted. All aspects of the study including housing, experimentation and disposal of animals were performed in general accordance with the Guide for the Care and Use of Laboratory Animals (National Academy Press, Washington, D.C., 1996). Groups of 5 CD-1 male mice were fasted overnight prior to use. The test substances were administered orally one hour before intra-plantar injection of the right hind paw with carrageenan (50 μl of 1% suspension).

[2] = test system: Complete Freund's Adjuvant-induced arthritis (hind paw volume); test: Adjuvant-induced arthritis in rats; format: in vivo, Lewis rats; conditions: reference drugs oral once daily for 5 days: Phenylbutazone 35, Celebrex 10, Dexamethasone 5 mg/kg
Experimental: The study was conducted in male Lewis rats obtained from Charles River Japan, Inc. The animals were housed in a controlled temperature (21° C.-24° C.) and humidity (54%-68%) environment with 12 hour light/dark cycles for at least 1 week prior to use. Rats had Laboratory Rodent Diet MF-18 (Oriental Yeast Co., Ltd., Japan) and water (reverse osmosis purified water) ad libitum. The entire study and animal conditions and manipulations were conducted in accordance with the Guide for the Care and Use of Laboratory Animals (National Academy Press, Washington, D.C., 1996).
Eight groups of 5 rats weighing approximately 210±10 g were used. […] A dosing volume of 10 ml/kg was used. A well-ground suspension of killed Mycobacterium tuberculosis (0.3 mg in 0.1 ml of light mineral oil (CFA) was administered in a single dose into the subplantar region of the right hind paw 1 hour following the first dose of the test and reference compositions.
Right hind paw volume was measured 4 hours after single CFA injection (denoted day 1), and on day 5 (acute phase), while the left hind paw (without CFA) volume was measured on day 14 and 18 (delayed phase). Hind paw volume was measured by plethysmometer and water cell (25 mm diameter).

[3] = test system: knee pain associated with arthrosis
Description: A 10 year old Husky with a history of bilateral rupture of the cruciate ligament had bilateral knee surgery to correct this problem. The animal was also known to have zinc deficiency.
The dog was prescribed metacam for knee pain associated with arthrosis.

CC(=O)Oc1ccccc1C(=O)O [Aspirin]
% inhibition (hind paw edema) [1]: 36%
anti-inflammatory activity in carrageenan-induced paw edema assay [1]: significant anti-inflammatory activity

Cc1ccc(-c2cc(C(F)(F)F)nn2-c2ccc(S(N)(=O)=O)cc2)cc1 [Celebrex]
% inhibition (hind paw edema) [1]: 23%
anti-inflammatory activity in carrageenan-induced paw edema assay [1]: significant anti-inflammatory activity
% inhibition Day 14-0 [2]: 20%
% inhibition Day 18-0 [2]: 25%
% inhibition Day 18-14 [2]: 30%

COc1ccc2cc([C@H](C)C(=O)O)ccc2c1 [Naproxen]
% inhibition (hind paw edema) [1]: 36%
anti-inflammatory activity in carrageenan-induced paw edema assay [1]: significant anti-inflammatory activity

CCCCC1C(=O)N(c2ccccc2)N(c2ccccc2)C1=O [Phenylbutazone]
% inhibition (hind paw edema) [1]: 23%
% inhibition Day 14-0 [2]: 18, 18, 18%
% inhibition Day 18-0 [2]: 18, 18, 18%
% inhibition Day 18-14 [2]: 18, 18, 18%

Cc1cnc(NC(=O)C2=C(O)c3ccccc3S(=O)(=O)N2C)s1 [metacam]
pain control / pain relief (clinical examination) ([3]; 10 year old Husky, composition #8 1 gram per 10 kg body weight daily, a few weeks): only partially controlled
intolerance ([3]; dog, in vivo): signs of intolerance
